Laboratory results as given in patent US20050244490A1, “Dosing methods for beta-D-2',3'-dideoxy-2',3'-didehydro-5-fluorocytidine antiviral therapy” (priority 2003, published 2005).
pEC50, pIC50, pKi: −log10 of the molar value. Where two headings read alike, the source gives them in different places. Blank lines part the entries; values can stand above or below the molecule they belong to.

Columns and labels:
[1] = test system: HepG2 cells; experiment: Mitochondrial toxicity testing (mitDNA, rRNA, lactic acid); assay type: cell-based; conditions: 14 days; for % Change in Lactic Acid: normalized for cytotoxicity
Method: HepG2 cells were incubated for 14 days with the active agent. and mitDNA and rRNA levels were determined by quantitative real-time PCR. The results are tabulated in […]

[2] = human, in vivo
[3] = clinical; conditions: in vivo
[4] = test system: AZT/3TC-resistant HIV-1 recombinant viruses; experiment: microbe, parasite or virus in culture; assay type: cell-based; conditions: Human immunodeficiency virus 1, read-out: Average IC90 for AZT/3TC-R virus
Method: A panel of 22 viruses was constructed in the HXB2 background using the Protease and RT sequences from clinical isolates to determine Virco Profiling against recombinant clinical isolates (see FIGS. 7a and 7b). Viruses contained 2 to 17 mutations in RT frequently associated with nucleoside resistance, including: M184V, M41L, D67N, T215Y. IC50 values were determined using a high through-put reporter virus assay.

[5] = molecular target: T1, DNA Pol γ (Homo sapiens, UniProt P54098); experiment: Inhibition of pure DNA polymerase γ by nucleoside triphosphates; assay type: biochemical; conditions: tritiated dCTP incorporation
T1 sequence (P54098 1-1239): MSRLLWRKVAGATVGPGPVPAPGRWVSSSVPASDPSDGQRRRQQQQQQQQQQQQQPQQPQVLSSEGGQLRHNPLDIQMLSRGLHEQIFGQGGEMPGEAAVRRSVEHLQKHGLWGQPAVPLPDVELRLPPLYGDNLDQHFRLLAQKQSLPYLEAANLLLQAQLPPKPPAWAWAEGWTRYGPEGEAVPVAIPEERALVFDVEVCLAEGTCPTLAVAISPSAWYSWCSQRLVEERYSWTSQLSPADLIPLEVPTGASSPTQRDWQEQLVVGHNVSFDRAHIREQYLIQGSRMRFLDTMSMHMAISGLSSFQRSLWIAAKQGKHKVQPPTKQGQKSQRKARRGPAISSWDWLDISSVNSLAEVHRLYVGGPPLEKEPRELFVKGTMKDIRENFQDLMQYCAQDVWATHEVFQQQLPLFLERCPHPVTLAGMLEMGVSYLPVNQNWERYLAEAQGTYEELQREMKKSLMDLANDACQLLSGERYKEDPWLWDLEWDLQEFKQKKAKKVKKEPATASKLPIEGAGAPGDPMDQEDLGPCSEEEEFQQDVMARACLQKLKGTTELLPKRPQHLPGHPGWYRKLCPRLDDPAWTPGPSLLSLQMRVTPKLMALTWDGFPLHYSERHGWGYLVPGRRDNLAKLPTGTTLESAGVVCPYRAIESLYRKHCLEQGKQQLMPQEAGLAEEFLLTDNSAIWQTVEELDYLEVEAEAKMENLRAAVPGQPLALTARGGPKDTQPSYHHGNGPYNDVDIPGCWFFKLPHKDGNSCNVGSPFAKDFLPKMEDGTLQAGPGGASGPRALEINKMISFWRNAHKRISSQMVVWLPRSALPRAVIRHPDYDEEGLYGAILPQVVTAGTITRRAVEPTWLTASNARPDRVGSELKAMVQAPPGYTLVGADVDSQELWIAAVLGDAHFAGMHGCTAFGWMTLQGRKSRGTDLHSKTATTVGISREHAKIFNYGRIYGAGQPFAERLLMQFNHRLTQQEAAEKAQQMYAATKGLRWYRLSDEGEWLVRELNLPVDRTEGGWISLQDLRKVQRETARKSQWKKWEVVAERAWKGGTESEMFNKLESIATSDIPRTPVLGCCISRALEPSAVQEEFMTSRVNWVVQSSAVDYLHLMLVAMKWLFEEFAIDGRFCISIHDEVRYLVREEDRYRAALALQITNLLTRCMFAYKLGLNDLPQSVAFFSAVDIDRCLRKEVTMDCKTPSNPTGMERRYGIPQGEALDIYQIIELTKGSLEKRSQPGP
Method: (§1) Triphosphates of nucleosides were tested against pure polymerases using tritiated dCTP incorporation.

[6] = molecular target: T2, wild type HIV-RT (Human immunodeficiency virus type 1 group M subtype B, UniProt P04585); experiment: Ki / Km for wild type HIV-RT; assay type: biochemical, HIV-1
T2 construct: The Ki value for β-D-D4FC-TP for wild type HIV-RT

[7] = molecular target: M184V mutant RT (Human immunodeficiency virus type 1 group M subtype B, UniProt P04585, M771V); experiment: biochemical; assay type: biochemical, HIV-1
[8] = molecular target: T3, HIV RT (Human immunodeficiency virus type 1 group M subtype B, UniProt P04585); experiment: Inhibition of purified HIV-1 reverse transcriptase by nucleoside triphosphates (tritiated dCTP incorporation); assay type: biochemical; conditions: pure polymerase, tritiated dCTP incorporation; read-out: IC50
T3 construct: purified HIV-1 reverse transcriptase (RT)
Method: An assay was performed to determine the ability of β-D-D4FC-triphosphate to terminate polymerization catalyzed by purified HIV-1 reverse transcriptase (RT). […] The target concentration is that concentration where most mutant variants tested are suppressed by 90% or more. The concentration of 5 μM is the target plasma concentration as most, mutant variants tested were suppressed ≧90% in vitro.
as §1

[9] = molecular target: DNA Pol β (Homo sapiens, UniProt P06746); experiment: Inhibition of pure DNA polymerase β by nucleoside triphosphates; assay type: biochemical; conditions: tritiated dCTP incorporation
Method: as §1

[10] = clinical; conditions: male, human, in vivo
Method: Total of 18 HIV-1 infected males, aged 18-55 years, enrolled, 6 per treatment cohort.
In Cohort 3, subjects received either 100 mg, or 200 mg, or placebo.
The data was analyzed using non-compartmental and two-compartmental models.
HIV RNA levels were also determined using quantitative real-time RT-PCR.
Plasma HIV-1 RNA levels were measured by quantitative reverse transcriptase-polymerase chain reaction (Q-RT-PCR) essentially as described by Stuyver, L. J. et al., “Antiviral activity and cellular toxicity of modified 2′,3′-dideoxy-2′,3′-didehydrocytidine analogues” Antimicrob Agents Chemother.

[11] = test system: HIV viral load; conditions: cited from earlier work
[12] = pbmc
[13] = test system: acutely HIV-1 infected human PBM cells; experiment: Median effect / combination index study with Racivir; assay type: cell-based; conditions: Human immunodeficiency virus 1, PBMC, 120 h

Structure (SMILES): Nc1ccn([C@@H]2CS[C@H](CO)O2)c(=O)n1 [3TC, β-L-2′,3′-dideoxy-3′-thiacytidine]
% Change in mitDNA ([1]; 1 μM): 0% | % Change in rRNA ([1]; 1 μM): −0.3% | % Change in Lactic Acid ([1]; 1 μM): +23% | % Change in mitDNA ([1]; 10 μM): −9% | % Change in rRNA ([1]; 10 μM): −0% | % Change in Lactic Acid ([1]; 10 μM): +5% | Intracellular [Nuc-PPP] in patients [2]: 6 to 10 µM | Cmax [3]: 6.6 µM | IC90 [4]: > 93 µM

Structure (SMILES): Nc1ccn([C@@H]2CS[C@H](COP(=O)(O)OP(=O)(O)OP(=O)(O)O)O2)c(=O)n1 [3TC-TP]
pIC50 [5]: 4.37 | pKi ([6]; read-out: Ki WT): 6.02 | pKi ([7]; read-out: Ki M184V): 4.07 | pIC50 [8]: 6.24 | pIC50 [9]: 4.99

AUC ([10]; 10 mg): 0.39 ± 0.26 µM·h | AUC(0-τ) ([10]; 10 mg): 136 ± 14 ng·h/mL | AUC(0-∞) ([10]; 10 mg): 149 ng·h/mL | CLr ([10]; 10 mg): 1.39 L/h | CLtot/F ([10]; 10 mg): 67 957 mL/h | T ½ ([10]; 10 mg): 6.4 ± 4.2 h | Tmax ([10]; 10 mg): 1.0 ± 0.3 h | t1/2 λz ([10]; 10 mg): 2.41 h | tmax ([10]; 10 mg): 1.08 h | AUC ([10]; 25 mg): 1.52 ± 0.87 µM·h | AUC(0-τ) ([10]; 25 mg): 234 ng·h/mL | AUC(0-∞) ([10]; 25 mg): 250 ng·h/mL | CLr ([10]; 25 mg): 1.27 L/h | CLtot/F ([10]; 25 mg): 115 262 mL/h | T ½ ([10]; 25 mg): 9.5 ± 5.2 h | Tmax ([10]; 25 mg): 1.8 ± 0.9 h | t1/2 λz ([10]; 25 mg): 4.60 h | tmax ([10]; 25 mg): 1.33 h | AUC ([10]; 100 mg): 1.93 ± 0.68 µM·h | AUC(0-τ) ([10]; 100 mg): 309 ng·h/mL | AUC(0-∞) ([10]; 100 mg): 340 ng·h/mL | CLr ([10]; 100 mg): 10.26 L/h | CLtot/F ([10]; 100 mg): 307 932 mL/h | T ½ ([10]; 100 mg): 18.6 ± 10.1 h | Tmax ([10]; 100 mg): 3.7 ± 0.8 h | t1/2 λz ([10]; 100 mg): 8.50 h | tmax ([10]; 100 mg): 3.67 h | AUC ([10]; 200 mg): 14.43 ± 13.12 µM·h | AUC(0-τ) ([10]; 200 mg): 1,665 ng · h/mL | AUC(0-∞) ([10]; 200 mg): 1,887 ng · h/mL | CLr ([10]; 200 mg): 4.60 L/h | CLtot/F ([10]; 200 mg): 169 692 mL/h | T ½ ([10]; 200 mg): 11.2 ± 7.1 h | Tmax ([10]; 200 mg): 3.3 ± 3.2 h | t1/2 λz ([10]; 200 mg): 10.48 h | tmax ([10]; 200 mg): 3.33 h
Structure (SMILES): Nc1nc(=O)[nH]cc1F [5FC, 5-fluorocytosine]

Structure (SMILES): Nc1nc(NC2CC2)c2ncn([C@H]3C=C[C@@H](CO)C3)c2n1 [ABC, (1S,4R)-4-[2-amino-6-cyclopropyl-amino)-9H-purin-9-yl]-2-cyclopentene-1-methanol succinate]
Viral Load Decline (log) ([11]; 600 mg BD, duration of dosing 7): −1.00 log

Structure (SMILES): Cc1cn([C@H]2C[C@H](N=[N+]=[N-])[C@@H](CO)O2)c(=O)[nH]c1=O [AZT, 3′-deoxy-3′-azido-thymidine]
Viral Load Decline (log) ([11]; 300 mg BD, duration of dosing 14): −0.6 log

Structure (SMILES): Cc1cn([C@H]2C=C[C@@H](CO)O2)c(=O)[nH]c1=O [D4T, 2′,3′-didehydro-2′,3′-dideoxythymidine]
Intracellular half life [12]: 3.5 h | Intracellular [Nuc-PPP] in patients [2]: 0.05 µM | pKi [6]: 6.52 to 7.30 | Cmax [3]: 2.7 µM | half-life [3]: 1.7 h | pKi [7]: 5.52 | pEC50 [13]: 7.30 | EC90 [13]: 0.35 µM | IC90 [4]: 6.8 µM

Structure (SMILES): Nc1nc(N)c2ncn([C@H]3CO[C@@H](CO)O3)c2n1 [DAPD, β-D-dioxolanyl-2,6-diaminopurine]
Viral Load Decline (log) ([11]; 300 mg BD, duration of dosing 14, add-on study in experienced patients): −1.5 log

Structure (SMILES): Cc1cn([C@H]2C[C@H](F)[C@@H](CO)O2)c(=O)[nH]c1=O [FLT]
Viral Load Decline (log) ([11]; 7.5 mg QD, duration of dosing 28, add-on study in experienced patients): −1.88 log
